{
  "source": "patent US9314020B2",
  "about": "“Microbicidal composition” (Dow Global Technologies LLC, priority 2012, dated 2016)",
  "key": {"[1]": {"test_system": "Desulfovibrio longus ATCC 51456", "test": "Biocidal efficacy against anaerobic bacteria (2 h kill in deoxygenated salt solution)", "format": "cell-based", "experimental": "(§1) The synergism of the biocides combination of the present invention was determined using the method described by Kull, F. C, et. al. in Applied Microbiology 9:538-541 (1961).\n(§2) The formula to calculate the synergistic index (SI) is Qa/QA+Qb/QB=SI where\n(§3) QA=concentration of compound A in ppm, acting alone produced an end point or if end point could not be established, the highest concentration tested will be used as the end point for the calculation and the SI will be recorded in “less than or <” values\n(§4) Qa=concentration of compound A in ppm, in the mixture, which produced an end point\n(§5) QB=concentration of compound B in ppm, acting alone produced an end point or if end point could not be established, the highest concentration tested will be used as the end point for the calculation and the SI will be recorded in “less than or <” values\nInside an anaerobic chamber (BACTRON anaerobic chamber), a deoxygenated sterile salt solution (3.1183 g of NaCl, 1.3082 mg of NaHCO3, 47.70 mg of KCl, 72.00 mg of CaCl2, 54.49 mg of MgSO4, 172.28 mg of Na2SO4, 43.92 mg of Na2CO3 in 1 L water) was inoculated with Desulfovibrio longus ATCC 51456, a sulfate-reducing bacterium, to a final bacterial concentration of 10^7 to 10^8 CFU/mL. Aliquots of this cell suspension were then treated with DBMAL, DTEA (in the hydrochloride form), and DBMAL/DTEA blends, at selected active concentrations. After the treated cell suspensions were incubated at 35° C. for 2 hours, the biocidal efficacy was determined by minimum tested biocide concentration for 99.999% bacteria kill in the aliquots. Table 1 summarizes the efficacy of each biocide and their blends, and the Synergy Index (SI) of each combination.\n(§6) In order to differentiate DBMAL/DTEA combinations from DTEA/DBNPA combinations, DTEA/DBNPA combinations were also tested using the same test procedures and conditions described above."}, "[2]": {"test_system": "Pseudomonas aeruginosa ATCC 10145, Aeromonas hydrophila ATCC 7965, and Myroides odoratus (Flavobacterium odoratum) NCIMB 13294", "test": "Efficacy against aerobic bacteria in synthetic cooling water (4 h kill, TSB/Resazurin readout)", "format": "cell-based", "conditions": "for Concentration (ppm a.i.) for complete bacterial kill in 4 hours: DBNPA: DBNPA alone or DBNPA part of DTEA/DBNPA blend; for Concentration (ppm a.i.) for complete bacterial kill in 4 hours: DBMAL: DBMAL alone or DBMAL part of DTEA/DBMAL blend", "experimental": "as §1, §2, §3, §4, §5\nSynthetic cooling water was generated as disclosed in Appendix A and dispensed into three 96-well plates. A stock solution of DBMAL from 12% liquid active (or DBNPA from a solid formulation as appropriate) and a stock solution of DTEA (in the hydrochloride form) derived from a liquid stock stored under anaerobic conditions were generated in the synthetic cooling water. In one 96-well biocide block, the stock solution of DBMAL (or DBNPA as listed) was added to the first row of the master block and diluted 1:1 by row until the testing range has been prepared. In a second 96-well biocide block, the stock solution of DTEA was added to the first column of the master block and diluted 1:1 by column until the testing range has been prepared. Biocides from each DBMAL row in the DBMAL biocide master block were added to the matching experimental row in a 3rd 96 well plate filled with synthetic cooling water. This was repeated, adding biocides from each DTEA column from the DTEA biocide master block to the matching experimental column Working quickly, the following organisms were added from a cell-suspension with an OD600 of ˜0.4 (approximately 1×10^8 cfu/ml) to final concentration of 1×10^7 cfu/ml in the first of the 96 well plates: Pseudomonas aeruginosa ATCC 10145, Aeromonas hydrophila ATCC 7965, and Myroides odoratus (Flavobacterium odoratum) NCIMB 13294. The resulting bacterial final concentration was 3×10^7 cfu/ml in the experimental 96 well block.\nThe experimental block was placed at 35° C., with the time of exposure started once the last well had been inoculated. At 4 hours, the experimental block was removed from the incubator, and 20 μl of treated cells from each row of the experimental block and were added to the first row of a 96-well plate pre-filled with TSB/Resazurin dye. Each sample from the first row of the TSB/Resazurin dye plate was diluted 1:10 six times by serial dilution moving down the plate by row. The inoculated TSB/Resazurin dye 96-well plate was placed at 35° C. for 24 hours, following that time data interpretation occurred. Color change from purple to pink indicates microbial metabolic activity and designates lack of cell death. Those wells were counted as “growth”. Failure to have color change from purple to pink indicates a lack of microbial metabolic activity and designates cell death. These were counted as “no growth”. […] The efficacy and synergy index of each combo were also included.\nas §6"}},
  "data": [
    {"smiles": "N#CC(Br)(Br)C(N)=O", "note": "[DBNPA alone]", "values": [
      {"measurement": "Concentration (ppm a.i.) for more than 99.999% bacterial kill in 2 hours: DBNPA", "setting": "[1]; DBNPA alone or DBNPA part of DTEA/DBNPA blend, Table 6", "value": 25.00, "unit": "ppm a.i."},
      {"measurement": "Concentration (ppm a.i.) for complete bacterial kill in 4 hours: DBNPA", "setting": "[2]; experiment 5", "value": 6.25, "unit": "ppm a.i."},
      {"measurement": "Concentration (ppm a.i.) for complete bacterial kill in 4 hours: DBNPA", "setting": "[2]; experiment 6", "value": 6.25, "unit": "ppm a.i."},
      {"measurement": "Concentration (ppm a.i.) for complete bacterial kill in 4 hours: DBNPA", "setting": "[2]; experiment 7", "value": 6.25, "unit": "ppm a.i."}
    ]},
    {"smiles": "NC(=O)C(Br)(Br)C(N)=O", "note": "[DBMAL alone, 2,2-dibromomalonamide]", "values": [
      {"measurement": "Concentration (ppm a.i.) for more than 99.999% bacterial kill in 2 hours: DBMAL", "setting": "[1]; DBMAL alone or DBMAL part of DTEA/DBMAL blend, 35° C., 2 hours, Table 1", "value": 100.00, "unit": "ppm a.i."},
      {"measurement": "Concentration (ppm a.i.) for complete bacterial kill in 4 hours: DBMAL", "setting": "[2]; experiment 1", "value": 25.00, "unit": "ppm a.i."},
      {"measurement": "Concentration (ppm a.i.) for complete bacterial kill in 4 hours: DBMAL", "setting": "[2]; experiment 2", "value": 25.00, "unit": "ppm a.i."},
      {"measurement": "Concentration (ppm a.i.) for complete bacterial kill in 4 hours: DBMAL", "setting": "[2]; experiment 3", "value": 25.00, "unit": "ppm a.i."},
      {"measurement": "Concentration (ppm a.i.) for complete bacterial kill in 4 hours: DBMAL", "setting": "[2]; experiment 4", "value": 50.00, "unit": "ppm a.i."},
      {"measurement": "Synergy Index", "setting": "[2]; DTEA/DBMAL blends, experiment 3", "value": 1.00}
    ]},
    {"smiles": "CCCCCCCCCCSCCN.Cl", "note": "[DTEA alone, 2-(decylthio)ethanamine hydrochloride]", "values": [
      {"measurement": "Concentration (ppm a.i.) for more than 99.999% bacterial kill in 2 hours: DTEA", "setting": "[1]; DTEA alone or DTEA part of DTEA/DBMAL blend, 35° C., 2 hours, Table 1", "value": 25.00, "unit": "ppm a.i."},
      {"measurement": "Concentration (ppm a.i.) for more than 99.999% bacterial kill in 2 hours: DTEA", "setting": "[1]; DTEA alone or DTEA part of DTEA/DBNPA blend, Table 6", "value": 25.00, "unit": "ppm a.i."},
      {"measurement": "Concentration (ppm a.i.) for complete bacterial kill in 4 hours: DTEA", "setting": "[2]; DTEA alone or DTEA part of DTEA/DBMAL blend, experiment 1", "value": 12.50, "unit": "ppm a.i."},
      {"measurement": "Concentration (ppm a.i.) for complete bacterial kill in 4 hours: DTEA", "setting": "[2]; DTEA alone or DTEA part of DTEA/DBMAL blend, experiment 2", "value": 25.00, "unit": "ppm a.i."},
      {"measurement": "Concentration (ppm a.i.) for complete bacterial kill in 4 hours: DTEA", "setting": "[2]; DTEA alone or DTEA part of DTEA/DBMAL blend, experiment 3", "value": 25.00, "unit": "ppm a.i."},
      {"measurement": "Concentration (ppm a.i.) for complete bacterial kill in 4 hours: DTEA", "setting": "[2]; DTEA alone or DTEA part of DTEA/DBMAL blend, experiment 4", "value": 100.00, "unit": "ppm a.i."},
      {"measurement": "Concentration (ppm a.i.) for complete bacterial kill in 4 hours: DTEA", "setting": "[2]; DTEA alone or DTEA part of DTEA/DBNPA blend, experiment 5", "value": 50.00, "unit": "ppm a.i."},
      {"measurement": "Concentration (ppm a.i.) for complete bacterial kill in 4 hours: DTEA", "setting": "[2]; DTEA alone or DTEA part of DTEA/DBNPA blend, experiment 6", "value": 100.00, "unit": "ppm a.i."},
      {"measurement": "Concentration (ppm a.i.) for complete bacterial kill in 4 hours: DTEA", "setting": "[2]; DTEA alone or DTEA part of DTEA/DBNPA blend, experiment 7", "value": 50.00, "unit": "ppm a.i."}
    ]}
  ]
}
